Results reported in patent US6254889A, “Solid dispersion dosage form of amorphous xanthine derivative and enteric-coating polymer” (Kyowa Hakko Kogyo Co., Ltd., priority 1995, dated 2001).

Assay: Comparative absorbability test, oral administration to beagles (pharmacokinetics)
Type: in vivo
Conditions: male beagle, oral with 20 ml water, 0-24 h, in terms of 3 mg/kg (doses given: Examples 6-8 3 mg/kg, crystal 6 mg/kg, Comparative Example 1 4 mg/kg)

## CCCn1c(=O)c2[nH]c(C34CC5CC(CC3C5)C4)nc2n(CCC)c1=O [Compound No. 1]
  The Area under the Plasma Concentration Curve, Intact Drug (in terms of 3 mg/kg): 69.9 ± 2.6 ng·h/mL
